Measurements as given in patent publication US20090155272A1, “Targeted pharmaceuticals and ligands” (priority 2005, published 2009).
Peptide text beside a SMILES is read from it. * marks the point of attachment. Decanoyl = CCCCCCCCCC(=O)*; CH2Cl = ClC*

Legend:
[1] = test system: α-DG; assay: Immunoprecipitation of the DG complex after furin inhibitor treatment; assay type: cell-based; settings: EpH4, MDA-MB-231 and MDA-MB-468 cells
[2] = test system: β-DG; assay: Metalloprotease-dependent shedding and cleavage of dystroglycan in cultured cells (immunoblot); assay type: cell-based; settings: incubation of the cells with inhibitor
Experimental: FIG. 6A-B depicts a modification of dystroglycan by metalloprotease activity. (A) Structure of α-DG and β-DG. α-DG associates non-covalently with β-DG, which spans the plasma membrane. O-linked glycosylation is shown as a chain of circles of varying length, whereas N-linked glycosylation is shown as branches. (B) Immunoblot analysis of α-DG and β-DG levels in cell lines cultured in the presence or absence of the MP inhibitor BB-2516. Cells were cultured in serum-free medium for two days with or without BB-2516 and then total cellular proteins were extracted and subjected to immunoblot analysis of α-DG and β-DG.
To confirm that metalloprotease activity is indeed blocked by the GM6001, the cleavage of known molecules is monitored. Using identically treated cell populations, proteins are extracted and analyzed by immunoblot. These controls include detecting the cleavage of the β-DG subunit, which is evidenced by a shift in the molecular mass of this protein from 43 kDa to 31 kDa in MDA-MB-231 cells using an antibody binding the β-DG cytoplasmic domain (see FIG. 6).
For example, metalloprotease cleavage events are responsible for the shedding of β-DG from the cell surface, and for direct cleavage of the extracellular domain of β-DG, which is detected by the reduction in the molecular mass of β-DG from 43 kD to 31 kD. Both the shedding of β-DG, and the cleavage of β-DG are blocked by the incubation of the cells with the broad-spectrum MMP inhibitors GM6001 or BB2516. Detection of the cleaved form of p-DG can be completely eliminated after just 24 hours exposure to the MMP inhibitor.

[3] = test system: BT474 and MDA-MB-231 cells; settings: 50 μM, extended periods of time; cited from earlier work
[4] = test system: known metalloproteases; settings: 50 μM; cited from earlier work

Compound	α-DG band position [1]	cleavage of β-DG (43 kD to 31 kD) [2]	shedding of β-DG from the cell surface [2]	cell viability on extended exposure [3]	block of activity of known metalloproteases [4]
CCCCCCCCCC(=O)N[C@@H](CCCN=C(N)N)C(=O)N[C@H](C(=O)N[C@@H](CCCCN)C(=O)N[C@@H](CCCN=C(N)N)C(=O)CCl)C(C)C [CMK] (Decanoyl-RVKR-CH2Cl)	shifted upward in all cells				
CNC(=O)[C@H](Cc1c[nH]c2ccccc12)NC(=O)[C@@H](CC(=O)NO)CC(C)C [GM6001]		blocked	blocked	without loss of cell viability	more than sufficient to block the activity of known metalloproteases
CNC(=O)[C@@H](NC(=O)[C@H](CC(C)C)[C@H](O)C(=O)NO)C(C)(C)C [BB2516]		blocked	blocked		
